pIC50: −log10 of the molar value. Read-outs that look alike come from different tables or passages of the source.
Columns and labels:
KARN cells (Jurkat 2C4) = assay: cells; format: cell-based; conditions: Homo sapiens, Jurkat
Protocol: KARN cells (Jurkat 2C4) were licensed from the laboratory of Dr. John Karn, Case Western Reserve University, School of Medicine. […] An atmosphere of 5% CO2 and 90% humidity was used for all culture work.
Day 1: After the 3-4 day growth period, the cells were transferred from the T175 flask to a 50 ml conical tube and gently pelleted at 1000 rpm for 5 minutes. […] These flasks were returned to the incubator.
Day 2: Cell Preparation: The next day, the cells were transferred from each T175 flask to an individual 50 ml conical tube and gently pelleted at 1000 rpm for 5 minutes. The cells were gently resuspended in assay media (30 ml) and pelleted again. […] The cells were counted using the ViCell (Beckman Coulter) and diluted as necessary. […] The plates were covered and returned to the incubator prior to compound addition.
The reference compounds, DMSO and SAHA were then added to the compound plate. […] The final high concentration for SAHA and the test compounds in the assays was 40 μM. The final DMSO concentration in all wells was 0.4%. The minimal induction reference compound used was DMSO and the maximal induction reference compound used was SAHA (2 μM final concentration in the assay).
Day 3: The luciferase detection reagent was prepared by transferring the contents of one bottle of Steady-Glo buffer to one bottle of Steady-Glo aubstrate (Steady-Glo Luciferase Assay System, Promega, catalog number E2520), followed by gently mixing until the substrate was thoroughly dissolved and the solution was equilibrated to room temperature. […] The Steady-Glo Reagent was added to the plates (30 μl/well), which were then covered with a black lid and incubated for 10 minutes at room temperature. The plates were then read for luminescence on an Envision (Perkin Elmer) using the ultrasensitive mode (US LUM), […] and 384-well aperture. Luminescence counts in the DMSO reference wells were considered as 0% induction, while those in the 2 μM SAHA reference wells were considered as 100% induction. Dose response curves were plotted as test compound concentration (X-axis) vs. percent activation (Y-axis) using a 4-parameter fit based on the Levenberg-Marquardt algorithm.

Recombinant human HDAC8 = biological target: T1, Recombinant human HDAC8 (Homo sapiens, UniProt Q9BY41); assay: Human HDAC enzyme inhibitor Fluor-de-Lys assay, HDAC8; format: biochemical
T1 construct: purchased Enzo Life Sciences BML-SE145-0100
T1 sequence (Q9BY41 1-377): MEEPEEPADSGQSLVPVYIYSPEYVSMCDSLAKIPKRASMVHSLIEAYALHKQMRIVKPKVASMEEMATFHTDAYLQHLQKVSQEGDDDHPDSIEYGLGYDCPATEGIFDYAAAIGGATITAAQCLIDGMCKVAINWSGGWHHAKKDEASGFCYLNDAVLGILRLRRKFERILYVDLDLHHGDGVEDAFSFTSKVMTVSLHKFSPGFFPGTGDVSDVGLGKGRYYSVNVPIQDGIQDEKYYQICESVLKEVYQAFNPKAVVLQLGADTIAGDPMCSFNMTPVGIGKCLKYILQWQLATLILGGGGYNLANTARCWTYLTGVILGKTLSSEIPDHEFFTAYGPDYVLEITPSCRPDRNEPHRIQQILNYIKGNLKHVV
Protocol: (§1) Human HDAC Enzyme Inhibitor Fluor-De-Lys Assay
(§2) Recombinant human HDAC8 (BML-SE145-0100) and HDAC10 (BML-SE559-0050) enzymes, HDAC substrates BML-KI104 and BML-KI178, and HDAC developer solutions BML-KI105 and BML-KI176 were purchased from Enzo Life Sciences. […] HDAC inhibitor suberoylanilide hydroxamic acid (SAHA) was obtained from Indofine and trichostatin A (TSA) was obtained from Sigma-Aldrich.
(§3) The histone deacetylase activities of HDAC1, HDAC2, HDAC3, HDAC6, and HDAC8 were measured in modified FLUOR DE LYS assays in 384-well format. In this assay, HDAC enzymes are initially incubated with an ε-acetyl (or -trifluoroacetyl)-L-lysine-containing substrate with a C-terminal amide having aminomethylcoumarin as the amine component. HDACs cleave the ε-acetyl group, rendering the resulting product susceptible to AMC cleavage by trypsin. The released AMC is then detected by its fluorescence.
(§4) The HDAC3/SMRT assay employed buffer B, consisting of 20 mM HEPES, pH 8.0, 1 mM MgCl2, 50 mM NaCl, 2.7 mM KCl, 0.05% BSA, 0.005% Tween 20, and 10 μM IP4. […] The HDAC8 assay employed buffer D, consisting of 20 mM HEPES, pH 8.0, 1 mM MgCl2, 100 mM NaCl, 20 mM KCl, 0.10% n-octyl-β-D-glucoside (Anatrace) and 0.05% BSA. All steps were performed at room temperature (23° C.). The assay was performed by pre-incubating serial dilutions of test compounds with the target HDAC prior to initiation with substrate. Each compound was titrated in a 10-point dose response, using a 1:3 fold dilution scheme, with 0.15 ul of solution added by ECH0555 to the plate, followed by the addition of 20 μl of the appropriate HDAC isoform diluted in appropriate assay buffer. […] Final conditions used for each assay were: 1. HDAC 1, 0.3 nM total enzyme, 20 μM substrate BML-KI104; 2. […] HDAC 3/SMRT, 0.3 nM total enzyme, 20 μM substrate BML-KI104; 4. […] The reactions were stopped and developed by addition of 30 ul of HDAC developer solution containing a saturating level of HDAC inhibitor as follows: 1.

HDAC6 = biological target: T2, HDAC6 (Homo sapiens, UniProt Q9UBN7); assay: Human HDAC enzyme inhibitor Fluor-de-Lys assay, HDAC6; format: biochemical
T2 sequence (Q9UBN7 1-1215): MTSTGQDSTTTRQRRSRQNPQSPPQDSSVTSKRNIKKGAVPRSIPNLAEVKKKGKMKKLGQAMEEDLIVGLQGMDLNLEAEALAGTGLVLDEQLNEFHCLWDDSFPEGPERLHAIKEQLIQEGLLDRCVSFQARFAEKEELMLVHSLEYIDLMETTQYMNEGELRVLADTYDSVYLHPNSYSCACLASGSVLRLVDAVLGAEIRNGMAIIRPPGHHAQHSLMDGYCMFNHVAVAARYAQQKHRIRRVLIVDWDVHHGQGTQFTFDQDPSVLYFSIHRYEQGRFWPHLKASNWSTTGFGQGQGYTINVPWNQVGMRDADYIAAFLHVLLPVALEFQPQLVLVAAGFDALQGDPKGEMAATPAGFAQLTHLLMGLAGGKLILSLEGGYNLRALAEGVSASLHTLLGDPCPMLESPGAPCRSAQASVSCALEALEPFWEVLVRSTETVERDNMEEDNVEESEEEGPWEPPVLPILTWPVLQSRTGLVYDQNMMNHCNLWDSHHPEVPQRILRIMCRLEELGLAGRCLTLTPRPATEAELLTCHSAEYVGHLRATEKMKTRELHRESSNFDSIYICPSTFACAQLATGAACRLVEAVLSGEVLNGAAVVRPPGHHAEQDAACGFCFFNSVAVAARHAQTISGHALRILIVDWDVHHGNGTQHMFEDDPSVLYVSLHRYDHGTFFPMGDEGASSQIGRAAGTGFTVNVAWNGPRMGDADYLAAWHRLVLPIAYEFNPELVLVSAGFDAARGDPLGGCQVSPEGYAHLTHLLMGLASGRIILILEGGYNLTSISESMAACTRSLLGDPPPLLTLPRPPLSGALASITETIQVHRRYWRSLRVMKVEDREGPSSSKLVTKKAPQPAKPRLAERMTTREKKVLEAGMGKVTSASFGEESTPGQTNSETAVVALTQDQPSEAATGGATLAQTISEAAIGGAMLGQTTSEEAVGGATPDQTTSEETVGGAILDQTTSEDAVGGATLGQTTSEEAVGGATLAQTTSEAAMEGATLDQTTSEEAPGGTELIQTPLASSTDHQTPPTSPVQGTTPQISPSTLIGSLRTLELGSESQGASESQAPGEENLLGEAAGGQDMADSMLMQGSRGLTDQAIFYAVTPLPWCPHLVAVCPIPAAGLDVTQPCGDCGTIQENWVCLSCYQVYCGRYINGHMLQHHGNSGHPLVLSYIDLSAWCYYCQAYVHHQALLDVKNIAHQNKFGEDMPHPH
Protocol: as §1, §2, §3, §4

[1] = read-out: Karn EC50 (nM) 0.1% NHS, 0.1% normal human serum, luciferase induction, 100% = 2 μM SAHA
[2] = read-out: Karn EC50 (nM) 5% NHS, 5% normal human serum, luciferase induction, 100% = 2 μM SAHA
[3] = recombinant human HDAC8, Fluor-de-Lys assay
[4] = read-out: Karn EC50 (nM) 0.1% NHS, 0.1% normal human serum
[5] = read-out: Karn EC50 (nM) 5% NHS, 5% normal human serum

SMILES	EC50 (KARN cells (Jurkat 2C4); [1]) [nM]	EC50 (KARN cells (Jurkat 2C4); [2]) [nM]	pIC50 (Recombinant human HDAC8; [3])	pIC50 (HDAC6; HDAC6, Fluor-de-Lys assay)	EC50 (KARN cells (Jurkat 2C4); [4]) [nM]	EC50 (KARN cells (Jurkat 2C4); [5]) [nM]	pIC50 (Recombinant human HDAC8)	pIC50 (HDAC6)
CCC(=O)CCCCC[C@H](NC(=O)[C@@H]1CC12CCN(C)CC2)c1ncc(-c2cc3ccccc3nc2OC)[nH]1 (single isomer, unassigned) [Compound 320]	339	1370	4.83	6.15				
CCC(=O)CCCCC[C@H](NC(=O)[C@H]1CC12CCN(CC(C)C)CC2)c1ncc(-c2cc3ccccc3nc2OC)[nH]1 [Compound 335]	31	63	5.48	6.48				
CCC(=O)CCCCC[C@H](NC(=O)[C@H]1CC12CCN(CCC(F)(F)F)CC2)c1ncc(-c2cc3ccccc3nc2OC)[nH]1 [Compound 332]	78	343	4.85	6.13				
CCC(=O)CCCCC[C@H](NC(=O)[C@H]1CC12CCN(CC)CC2)c1ncc(-c2ccc3c(=O)n(CC)ccc3c2)[nH]1 [Compound 92]					52	56	5.20	5.53
CCC(=O)CCCCC[C@H](NC(=O)[C@H]1CC12CCN(C)CC2)c1ncc(-c2cc3ccc(-c4ncco4)cc3nc2OC)[nH]1 [Compound 175, (1S)—N-[(1S)-1-{5-[2-methoxy-7-(1,3-oxazol-2-yl)quinolin-3-yl]-1H-imidazol-2-yl}-7-oxononyl]-6-methyl-6-azaspiro[2.5]octane-1-carboxamide]					48	84	< 6.82	< 6.82
CCC(=O)CCCCC[C@H](NC(=O)C1CC12CCN(C)CC2)c1ncc(-c2cc3ccccc3nc2OC)[nH]1 (stereo partly drawn) [Compound 313, N—((S)-1-(5-(2-methoxyquinolin-3-yl)-1H-imidazol-2-yl)-7-oxononyl)-6-methyl-6-azaspiro[2.5]octane-1-carboxamide]	57	272	5.52	6.61				
CCC(=O)CCCCC[C@H](NC(=O)[C@H]1CC12CCN(CC)CC2)c1ncc(-c2ccc(F)cc2OC)[nH]1 [Compound 197]					369	538	5.12	5.47
CCC(=O)CCCCC[C@H](NC(=O)C1CC2(CCN(CC)CC2)C1)c1ncc(-c2cc3ccccc3nc2OC)[nH]1 [Compound 278]	166	1000	6.01	6.32				
CCC(=O)CCCCC[C@H](NC(=O)[C@@H]1CC12CCCN(C)C2)c1ncc(-c2cc3ccccc3nc2OC)[nH]1 (stereo partly shown) [Compound 285]	257	1010	5.04	6.59				
CCC(=O)CCCCC[C@H](NC(=O)C1CC2(C1)CN(C)C2)c1ncc(-c2cc3ccccc3nc2OC)[nH]1 [Compound 311]	131	841	5.58	6.41				
CCC(=O)CCCCC[C@H](NC(=O)[C@H]1CC12CCN(C(C)C)CC2)c1ncc(-c2cc3ccccc3nc2OC)[nH]1 [Compound 337]	32	57	5.25	6.80				
CCC(=O)CCCCC[C@H](NC(=O)[C@H]1CC12CCN(CC(F)(F)F)CC2)c1ncc(-c2cc3ccccc3nc2OC)[nH]1 [Compound 333]	113	719	5.22	5.96				
CCC(=O)CCCCC[C@H](NC(=O)[C@H]1CC12CCN(CC)CC2)c1ncc(-c2ccc3cccnc3c2)[nH]1 [Compound 344]	37	54	5.47	6.06				
CCC(=O)CCCCC[C@H](NC(=O)[C@@H]1CC12CN(C)C2)c1ncc(-c2cc3ccccc3nc2OC)[nH]1 [Compound 322]	74	287	5.60	6.66				
CCC(=O)CCCCC[C@H](NC(=O)[C@H]1CC12CCN(CC)CC2)c1ncc(-c2cc3cccnc3cc2OC)[nH]1 [Compound 181]					52	63	5.28	6.84
CCC(=O)CCCCC[C@H](NC(=O)[C@H]1CC12CCN(CC)CC2)c1ncc(-c2ccc3ncccc3c2)[nH]1 [Compound 346]	46	57	5.50	6.26				

Source: US12590099B2, “Inhibitors of histone deacetylase useful for the treatment or prevention of HIV infection” (Merck Sharp & Dohme LLC, priority 2018, dated 2026)
